# Target: Recombinant human KIF18A (1-467His-tagged) protein (Homo sapiens (Human), UniProt Q8NI77)
# Assay: KIF18A enzyme assay (microtubule-stimulated ATPase activity, ADP-Glo)
# Format: biochemical
# Conditions: 30 nM KIF18A, ATP 75 μM, read-out: inhibitory activity against KIF18A IC50
# Method in brief: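 Baculovirus-expressed human KIF18A (1-467, His-tagged; 30 nM) preincubated 15 min at room temperature with compound (22-point 2-fold series) in pH 7.5 Tris buffer containing 30 μg/mL pig microtubules and 1 μM paclitaxel.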
# Chain of Recombinant human KIF18A (1-467His-tagged) protein (Q8NI77 1-467): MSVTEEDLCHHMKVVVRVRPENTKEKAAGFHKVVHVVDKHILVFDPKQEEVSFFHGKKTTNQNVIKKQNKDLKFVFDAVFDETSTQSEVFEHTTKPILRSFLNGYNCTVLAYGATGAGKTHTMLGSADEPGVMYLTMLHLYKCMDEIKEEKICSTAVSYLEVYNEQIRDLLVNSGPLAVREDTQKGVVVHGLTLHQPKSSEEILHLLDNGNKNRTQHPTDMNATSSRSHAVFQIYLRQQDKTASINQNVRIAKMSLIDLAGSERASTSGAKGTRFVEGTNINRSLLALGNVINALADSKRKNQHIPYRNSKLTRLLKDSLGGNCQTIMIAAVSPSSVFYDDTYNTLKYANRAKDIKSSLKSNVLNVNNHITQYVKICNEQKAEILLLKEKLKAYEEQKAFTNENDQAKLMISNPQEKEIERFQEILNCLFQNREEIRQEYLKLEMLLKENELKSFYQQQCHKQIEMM
# Chain of Recombinant human KIF18A (1-467His-tagged) protein (P02550 whole entry partner): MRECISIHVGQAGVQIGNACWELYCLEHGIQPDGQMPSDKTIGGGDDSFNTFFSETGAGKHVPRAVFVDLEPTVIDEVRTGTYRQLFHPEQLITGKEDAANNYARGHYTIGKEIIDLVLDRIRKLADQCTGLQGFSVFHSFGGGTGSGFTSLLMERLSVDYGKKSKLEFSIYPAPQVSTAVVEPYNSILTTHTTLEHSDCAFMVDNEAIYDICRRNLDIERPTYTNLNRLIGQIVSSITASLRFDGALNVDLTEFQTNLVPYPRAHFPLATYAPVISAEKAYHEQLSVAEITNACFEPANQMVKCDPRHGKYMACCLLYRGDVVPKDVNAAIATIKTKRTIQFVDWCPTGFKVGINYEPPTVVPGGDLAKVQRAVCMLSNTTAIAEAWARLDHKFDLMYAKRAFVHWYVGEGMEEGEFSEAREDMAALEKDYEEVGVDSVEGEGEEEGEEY
# Chain of Recombinant human KIF18A (1-467His-tagged) protein (P02554 whole entry partner): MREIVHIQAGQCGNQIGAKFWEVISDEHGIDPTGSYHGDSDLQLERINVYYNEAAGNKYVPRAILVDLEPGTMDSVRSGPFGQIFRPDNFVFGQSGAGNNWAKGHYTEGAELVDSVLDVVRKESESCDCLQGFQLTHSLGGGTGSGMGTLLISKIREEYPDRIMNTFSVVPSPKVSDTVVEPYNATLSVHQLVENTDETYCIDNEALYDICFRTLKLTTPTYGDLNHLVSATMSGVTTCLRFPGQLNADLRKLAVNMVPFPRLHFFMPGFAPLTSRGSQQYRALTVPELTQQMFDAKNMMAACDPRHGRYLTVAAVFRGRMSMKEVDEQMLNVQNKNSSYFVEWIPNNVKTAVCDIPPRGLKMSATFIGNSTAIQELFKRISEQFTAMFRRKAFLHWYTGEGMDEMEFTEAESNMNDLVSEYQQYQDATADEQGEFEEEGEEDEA
row,Compound,IC50
1,O=C(Nc1cc2c(c(N3CCC(F)(F)CC3)n1)OCCO2)c1ccc(NS(=O)(=O)CCO)cc1N1CCC2(CC1)CC2 [Compound 544],≤ 100 nM
2,CN1CCc2cc(NC(=O)c3ccc(NS(=O)(=O)CCO)cc3N3CCC4(CC3)CC4)nc(N3CCC(F)(F)CC3)c21 [Compound 321],≤ 100 nM
3,CN1CCc2cc(C(=O)Nc3ccc(S(=O)(=O)NCCO)cc3N3CCC4(CC3)CC4)nc(NC(C)(C)CO)c21 [Compound 379],≤ 100 nM
4,Cn1ccc2cc(C(=O)Nc3ccc(S(=O)(=O)NCCO)cc3N3CCC4(CC3)CC4)cc(N3CCC4(CC4)C3)c21 [Compound 438],≤ 100 nM
5,CC1(F)CCN(c2nc(C(=O)Nc3ccc(S(=O)(=O)NCCO)cc3N3CCC4(CC3)CC4)cc3c2OCC3)C1 (centres unmarked) [Compound 120],≤ 100 nM
6,Cn1ccc2cc(NC(=O)c3ccc(S(=O)(=O)NCCO)cc3N3CCC4(CC3)CC4)cc(N3CCOCC3)c21 [Compound 412],≤ 100 nM
7,O=C(Nc1cc(N2CCC(F)(F)CC2)c2ncoc2c1)c1ccc(NS(=O)(=O)CCO)cc1N1CCC2(CC1)CC2 [Compound 517],≤ 100 nM
8,Cn1ccc2cc(NC(=O)c3ccc(NS(=O)(=O)CCO)cc3N3CCC4(CC3)CC4)cc(N3CCC(C)(F)C3)c21 (centres unmarked) [Compound 392],≤ 100 nM
9,C[C@H]1CN(c2nc(C(=O)Nc3ccc(S(=O)(=O)NCCO)cc3N3CCC4(CC3)CC4)cc3ccoc23)CCO1 [Compound 243],≤ 100 nM
10,O=C(Nc1cc2c(c(OCCC(F)(F)F)c1)OCC2)c1ccc(S(=O)(=O)NCCO)cc1N1CCC2(CC1)CC2 [Compound 21],≤ 100 nM
11,O=C(Nc1cc(OC2CCC2)c2occc2c1)c1ccc(NS(=O)(=O)CCO)cc1N1CCC2(CC1)CC2 [Compound 135],≤ 100 nM
12,C[C@@H]1CN(c2nc(C(=O)Nc3ccc(NS(=O)(=O)[C@H](C)CO)cc3N3CCC4(CC3)CC4)cc3c2N(C)CC3)CCO1 [Compound 368],≤ 100 nM
13,C[C@H]1CN(c2nc(NC(=O)c3ccc(NS(=O)(=O)CCO)cc3N3CCC4(CC3)CC4)cc3ccoc23)CCO1 [Compound 195],≤ 100 nM
14,O=C(Nc1cc2c(c(N3CCC(F)(F)CC3)c1)OCCC2)c1ccc(S(=O)(=O)NCCO)cc1N1CCC2(CC1)CC2 [Compound 546],≤ 100 nM

# Continued, values first:
row,IC50,Compound
1,≤ 100 nM,CC1(F)CCN(c2nc(C(=O)Nc3ccc(NS(=O)(=O)CCO)cc3N3CCC4(CC3)CC4)cc3ccoc23)C1 (centres unmarked) [Compound 232]
2,≤ 100 nM,Cn1ccc2cc(C(=O)Nc3ccc(S(=O)(=O)NCCO)cc3N3CCC4(CC3)CC4)cc(N3CC(F)(F)C3)c21 [Compound 436]
3,≤ 100 nM,C[C@@H]1CN(c2nc(NC(=O)c3ccc(S(=O)(=O)N[C@@H](C)CO)cc3N3CCC4(CC3)CC4)cc3ccoc23)CCO1 [Compound 223]
4,≤ 100 nM,O=C(Nc1ccc(S(=O)(=O)NCCO)cc1N1CCC2(CC1)CC2)c1cc(N2CC3CC3C2)c2occc2c1 (centres unmarked) [Compound 186]
5,≤ 100 nM,C[C@H](CO)NS(=O)(=O)c1ccc(C(=O)Nc2cc3c(c(N4CCC(F)(F)CC4)c2)OCC3)c(N2CCC3(CC2)CC3)c1 [Compound 30]
6,≤ 100 nM,C[C@@H]1CN(c2cc(C(=O)Nc3ccc(S(=O)(=O)NCCO)cc3N3CCC4(CC3)CC4)cc3ccn(C)c23)CCO1 [Compound 434]
7,≤ 100 nM,O=C(Nc1cc2c(c(N3CC4CC4C3)c1)OCC2)c1ccc(S(=O)(=O)NCCO)cc1N1CCC2(CC1)CC2 (centres unmarked) [Compound 26]
8,≤ 100 nM,O=C(Nc1ccc(NS(=O)(=O)CCO)cc1N1CCC2(CC1)CC2)c1cc2ccoc2c(N2CC3CC3C2)n1 (centres unmarked) [Compound 234]
9,≤ 100 nM,O=C(Nc1ccc(NS(=O)(=O)CCO)cc1N1CCC2(CC1)CC2)c1cc(N2CCC3(CC3)C2)c2occc2c1 [Compound 166]
10,≤ 100 nM,O=C(Nc1ccc(NS(=O)(=O)CCO)cc1N1CCC2(CC1)CC2)c1cc2c(c(N3CCC(F)(F)CC3)c1)OCCC2 [Compound 545]
11,≤ 100 nM,C[C@H](CO)NS(=O)(=O)c1ccc(C(=O)Nc2cc(N3CCC(F)(F)CC3)c3occc3c2)c(N2CCC3(CC2)CC3)c1 [Compound 158]
12,≤ 100 nM,O=C(Nc1ccc(NS(=O)(=O)CCO)cc1N1CCC2(CC1)CC2)c1cc2c(c(OCCC(F)(F)F)c1)OCC2 [Compound 37]
